Results as given in patent US8802662B2, “Anti-hepatitis C composition and method for preparing drug for inhibiting hepatitis C viruses or treating hepatitis C” (Industrial Technology Research Institute, priority 2009, dated 2014).
≈ marks a conversion by molar mass, not a printed value.

Columns and labels:
[1] = system: HCV replicon (I389luc-ubi-NS3-3′/ET) in Huh-luc/neo-ET cell; assay: HCV replication inhibition by firefly luciferase activity in Huh-luc/neo-ET cells (HCV replicon system); conditions: for IC50 / IC90: Hepatitis C virus, Huh-luc/neo-ET, 48 h; for IC50: read-out: IC50: 50% of the HCV replication inhibition concentration, Huh-luc/neo-ET cells, luciferase activity, co-cultured 2 days; for IC90: read-out: IC90: 90% of the HCV replication inhibition concentration; for IC50: 50% of the HCV replication inhibition concentration: Huh-luc/neo-ET cells, luciferase activity, co-cultured 2 days; for EW (effect window, CC50/IC50): ratio of CC50 to IC50 in Huh-luc/neo-ET cells
Text: The Huh-luc/neo-ET cell has I389luc-ubi-NS3-3′/ET replicon and could be used to monitor the replicative capability of the HCV. The Huh-luc/neo-ET is able to express a firefly luciferase-ubiquitin-neomycin fusion protein translated by the internal ribosomal entry site (IRES) of the hepatitis C virus and is able to express the hepatitis C viral nonstructural protein (NS3-5B) including protease, helicase and polymerase translated by the IRES of the encephalomyocarditis virus (EMCV). When the replication complex composed of the IRES of the hepatitis C virus or the nonstructural protein of the hepatitis C virus is influenced by a candidate, the effect of the candidate for inhibiting the activity of the hepatitis C virus repilcon can be estimated by determining the intensity of the firefly luciferase activity. The hepatitis C virus inhibition effect of the limonoid compound can be determined by determining the firefly luciferase activity expressed by the Huh-luc/noe-ET cell in presence of the limonoid compound.
5.96 g of chuanlianzi ethanol extract was dissolved in 20 ml of a mixture of methanol and water and extracted with 15 ml of n-hexane, diethyl ether, dichloromethane and ethyl acetate for 2-3 times, respectively to obtain an n-hexane layer extraction solution, diethyl ether layer extraction solution, dichloromethane layer extraction solution and ethyl acetate layer extraction solution, respectively. Each layer extraction solution was concentrated and dried to obtain an n-hexane layer extract, diethyl ether layer extract, dichloromethane layer extract and ethyl acetate layer extract, respectively. The hepatitis C inhibition activity of each layer extract was determined by using a Huh-luc/neo-ET cell (HCV replication system) for testing thereof.
The Huh-luc/neo-ET cells were co-cultured with toosendanin with concentrations of 0.15 μg/ml, 0.075 μg/ml, 0.038 μg/ml, 0.019 μg/ml and 0.0085 μg/ml, respectively for 2 days and then were washed twice by 100 μl of 1×PBS (1 mM KH2PO4, 10 mM Na2HPO4, 137 mM NaCl, 2.7 mM KCl) and PBS was removed. 35 μl of 1× passive lysis buffer (Promega, E1941) was added to the cells and vortexed by a vortexer for 10 minutes to thoroughly mix the cells.
Cell suspension with an amount of 30 μl/well was added to a 96 well white plate(NUNC, 236108) for measuring luciferase activity, and 40 μl/well of luminescence analysis buffer and 20 μl/well of luminescence substrate (1 mM D-Luciferin) were sequentially added into the 96 well white plates. After the substrate was added, a microplate luminescence meter (Berthold, MPL4) was used to measure the luciferase activity (Rlu/s).
The luciferase activity of the control group was used as a standard to calculate the hepatitis C virus inhibition rates (%) of the experiment groups. The formula of inhibition rates (%) was: {[(luciferase activity of control group)−(luciferase activity of experiment group)]/(luciferase activity of control group)}×100%. After the sample was serial diluted and the HCV replication inhibition rates were determined at different concentrations, 50% of the HCV replication inhibition concentration (IC50) was calculated by grafit5 software (Erithacus Software).
For each experiment, except for the PEG IFN alpha-2a with concentrations of 0.5 ng/ml and 0.1 ng/ml were used as positive controls for the IC50 test. Additionally, cyclosporine A (CsA) with a concentration of 1 μg/ml was also used as a positive control for the IC50 test.
The experiment procedure was the same as Example 2 while the testing sample was replaced with Trichilin H. The Huh-luc/neo-ET cells were co-cultured with Trichilin H with concentrations of 0.75 μg/ml, 0.5 μg/ml, 0.25 μg/ml and 0.125 μg/ml, respectively.

in vitro = assay type: cell-based; conditions: human, Huh-luc/neo-ET cells, MTT, culturing for two days; read-out: CC50: 50% of the cell cytotoxic concentration
Experimental: (§1) Huh-luc/neo-ET cells with concentration of 2.5×10^4 cells/100 μl/well were seeded into a 96 well culture plate (Corning Incorporation COSTAR, 3599) and placed into a cell incubator for culturing.
(§2) The next day, a toosendanin sample was diluted with a DMEM culture medium to the concentrations of 28.73 μg/ml, 9.57 μg/ml, 3.19 μg/ml, 1.06 μg/ml, 0.35 μg/ml, 0.11 μg/ml, 0.039 μg/ml and 0.013 μg/ml, respectively, or to become the concentrations of 114.92 μg/ml, 38.33 μg/ml, 12.77 μg/ml, 4.25 μg/ml, 1.42 μg/ml, 0.46 μg/ml, 0.16 μg/ml and 0.057 μg/ml, respectively. The initial medium in the 96 well culture plate was sucked out by a vacuum pump (DOAT-704AA) without removing the cells. Then, the toosendanin culture medium with concentrations mentioned above were added into the 96 well culture plate containing cells with amount of 100 μl/well as experiment groups while untreated culture medium were added to the cells as a control group.
(§3) Then, PBS was removed and 50 μl of medium containing MTT (Sigma, M2128) with a concentration of 0.5 mg/ml was added into each well of the 96 well culture plate. After the 96 well culture plate was placed in a CO2 culture incubator for 1 hour, DMSO (Riedel-de Haën, 60153) with amount of 150 μl/well was added into the 96 well culture plate and vortexed by a votexer (KS shaker Type 670) to thoroughly mix the resulting purple precipitate. After the purple precipitate was thoroughly mixed, the 96 well culture plate was placed in a continuous wave length microwell plate analysis system (Molecular Devices, SPECTRAMAX 190) to measure the absorbance of cells at 560 nm.
(§4) The average absorbance of the control groups was used as 100% of the cell survival rates (%) to calculate the cell survival rates (%) of the experiment groups with different concentrations of toosendanin samples. The formula of the cell survival rate was: (absorbance of experiment group/absorbance of the control group)×100%. The cell survival rates of all experiment groups were drawn to form an x-y graph and thus a trend line formula with R^2 value greater than 0.9 was obtained.
(§5) In the trend line formula, when y was 50, the resulting X meant 50% of the cell cytotoxic concentration (CC50) or when y was 85, the resulting X meant 15% of the cell cytotoxic concentration (CC15). Due to the property of the sample, CC15 was calculated from the trend line formula generated by the experiment groups containing samples with concentrations of 3.19 μg/ml, 1.06 μg/ml, 0.35 μg/ml, 0.11 μg/ml and 0.039 μg/ml.
(§6) When the cell survival rates (%) was greater than 85%, it meant that the sample at or less than the concentration (the concentration less than CC15) was non-cytotoxic. […]

Huh-luc/neo-ET cells = assay: in vitro; assay type: cell-based; conditions: MTT, culturing for two days; for CC15: 15% of the cell cytotoxic concentration: from trend line formula (y = 85)
Experimental: as §1, §2, §3, §4, §5, §6

SMILES	IC50 [1]	IC90 [1]	IC50: 50% of the HCV replication inhibition concentration [1]	CC50 (in vitro)	CC15: 15% of the cell cytotoxic concentration (Huh-luc/neo-ET cells)	EW (effect window, CC50/IC50) [1]	EW (effect window, CC50/IC50) ([1]; listed as toosendanin)	CC50: 50% of the cell cytotoxic concentration (Huh-luc/neo-ET cells)
CC(=O)OC1C(OC(C)=O)C2(C)C(OC(=O)C(C)C)OCC3(C1O)C2CC(O)C1(C)C3C(=O)C(OC(C)=O)C2(C)C(c3ccoc3)CC3OC321 (stereo not drawn) [Trichilin H]	< 0.5 µg/mL	0.9 µg/mL (≈ 1.28 µM)	0.48 ± 0.10 µg/mL	> 50 µg/mL	0.7 µg/mL			
CC(=O)O[C@@H]1C[C@H](O)[C@@]23CO[C@@H](O)[C@]1(C)[C@@H]2C[C@@H](O)[C@]1(C)[C@@H]3C(=O)[C@H](OC(C)=O)[C@@]2(C)[C@H](c3ccoc3)C[C@H]3O[C@]321 [Toosendanin, toosendanin]	< 0.05 µg/mL	0.35 µg/mL (≈ 0.609 µM)	0.045 ± 0.004 µg/mL		0.34 µg/mL	>2531.6	greater than 2500	>114 µg/mL
